Data set [1] in a line: Test 1: urinary recovery after oral administration. The class given is in vivo. The following applies: mice (ICR-strain, female), 300 mcg per mouse, urine collected until 5 hours after administration, microbial assay, molar percentage. On the procedure: To mice (ICR-strain, female, 4 weeks-aged) was orally administered a new cephalosporin compound according to this invention at a dosage of 300 mcg per mouse. Until the end of 5 hours after oral administration of the test cephalosporin compound, all the volumes of urine discharged by the treated mice were collected together, and the total amount of the test compound remaining in the collected urine was measured by a microbial assay method. The urinary recovery of the test compound was calculated in terms of percentage of the molar quantity of the test compound as recovered, against the molar quantity of the test compound as orally given.

Data set [2] relates to Pseudomonas aeruginosa IFO3445. As to the kind of experiment: MIC, serial dilution method in Müller-Hinton agar. It counts as cell-based. The following applies: 37°C, 18 hours. Here is the method: (§1) The antibacterial activities of the cephalosporin compounds of the formula (I) according to this invention, specifically the final product compounds of the Examples 1 to 6 given hereinafter, were assayed in term of their minimum inhibitory concentrations (MIC; mcg/ml) against various test bacteria, as determined according to a standard serial dilution method in Müller-Hinton agar medium (a product of Difico company), where the incubation was made at 37°C for 18 hours. For the comparison purpose, the antibacterial spectrum of a known compound, Cefalexin (abbreviated as CEX) was also assayed in the same way as above.

The test system of data set [3] is Rms139/MI Pseudomonas aeruginosa. Put plainly: MIC, serial dilution method in Müller-Hinton agar. The following applies: 18 h. It counts as cell-based. On the procedure:
as §1

The test system of data set [4] is Salmonella schottmulleri 8006. As to the kind of experiment: MIC, serial dilution method in Müller-Hinton agar. The following applies: 37°C, 18 hours. It counts as cell-based. On the procedure: as §1
The test system of the next data set is Proteus morganii IFO3848. As to the kind of experiment: MIC, serial dilution method in Müller-Hinton agar. The class given is cell-based. The following applies: Morganella morganii, IFO3848, 18 h. Here is the method:
as §1

In data set [5] the test system is Micrococcus luteus ATCC9341. Put plainly: MIC, serial dilution method in Müller-Hinton agar. The class given is cell-based. The following applies: 37°C, 18 hours. On the procedure: as §1
For data set [6], the system named is Escherichia coli K-12 C600. As to the kind of experiment: MIC, serial dilution method in Müller-Hinton agar. The following applies: K12C600; Escherichia coli K-12 C600; Müller-Hinton agar, 37°C, 18 hours; read-out: MIC. The class given is cell-based. Here is the method:
as §1

The test system of data set [7] is Salmonella enteritidis G14. Put plainly: MIC, serial dilution method in Müller-Hinton agar. The class given is cell-based. The following applies: Salmonella enterica; Salmonella enteritidis G14; Müller-Hinton agar, 37°C, 18 hours; read-out: MIC. Here is the method: as §1
The subject of data set [8] is Staphylococcus aureus FDA209P JC-1. As to the kind of experiment: MIC, serial dilution method in Müller-Hinton agar. It counts as cell-based. The following applies: Staphylococcus aureus FDA209P JC-1; Müller-Hinton agar, 37°C, 18 hours; read-out: MIC. Here is the method:
as §1

Data set [9] relates to Staphylococcus aureus MS353. Put plainly: MIC, serial dilution method in Müller-Hinton agar. The class given is cell-based. The following applies: Staphylococcus aureus, MS353, 18 h. On the procedure:
as §1

For data set [10], the system named is Staphylococcus aureus Terajima. As to the kind of experiment: MIC, serial dilution method in Müller-Hinton agar. It counts as cell-based. The following applies: 37°C, 18 hours. On the procedure: as §1
In data set [11] the test system is Rte16/Escherichia coli K-12 W3630. Put plainly: MIC, serial dilution method in Müller-Hinton agar. It counts as cell-based. The following applies: 18 h. On the procedure: as §1
The subject of data set [12] is Rms213/Escherichia coli K-12 W3630. Put plainly: MIC, serial dilution method in Müller-Hinton agar. The class given is cell-based. The following applies: 18 h. Here is the method:
as §1

For data set [13], the system named is Klebsiella pneumoniae PCI602. As to the kind of experiment: MIC, serial dilution method in Müller-Hinton agar. The following applies: Klebsiella pneumoniae, PCI602, 18 h. It counts as cell-based. Here is the method:
as §1

Data set [14] has as its system Salmonella paratyphi 1015. Put plainly: MIC, serial dilution method in Müller-Hinton agar. The following applies: Salmonella enterica, 37°C, 18 hours. It counts as cell-based. On the procedure:
as §1

In data set [15] the test system is Rms823/Escherichia coli K-12 W3630. As to the kind of experiment: MIC, serial dilution method in Müller-Hinton agar. The class given is cell-based. The following applies: 18 h. Here is the method:
as §1

The subject of another data set is Proteus rettgeri IFO3850. Put plainly: MIC, serial dilution method in Müller-Hinton agar. It counts as cell-based. The following applies: Providencia rettgeri, IFO3850, 18 h. On the procedure: as §1
For data set [16], the system named is Salmonella typhimurium IID971. As to the kind of experiment: MIC, serial dilution method in Müller-Hinton agar. The class given is cell-based. The following applies: Salmonella enterica, 18 h. Here is the method:
as §1

For data set [17], the system named is Bacillus subtilis ATCC6633. Put plainly: MIC, serial dilution method in Müller-Hinton agar. It counts as cell-based. The following applies: 37°C, 18 hours. On the procedure: as §1
For the next data set, the system named is Salmonella typhi 901. Put plainly: MIC, serial dilution method in Müller-Hinton agar. It counts as cell-based. The following applies: Salmonella enterica, 18 h. On the procedure: as §1
The subject of data set [18] is Rms212/Escherichia coli K-12 W3630. As to the kind of experiment: MIC, serial dilution method in Müller-Hinton agar. The following applies: 18 h. It counts as cell-based. On the procedure:
as §1

Data set [19] concerns Escherichia coli NIHJ-JS-2. Put plainly: MIC, serial dilution method in Müller-Hinton agar. The following applies: NIHJJS2; Escherichia coli NIHJ-JS-2; Müller-Hinton agar, 37°C, 18 hours; read-out: MIC. The class given is cell-based. On the procedure:
as §1

The subject of data set [20] is Klebsiella oxytosa GN10560. Put plainly: MIC, serial dilution method in Müller-Hinton agar. It counts as cell-based. The following applies: Klebsiella oxytosa GN10560, cefuroximase producing strain, 37°C, 18 hours. Here is the method: as §1
The subject of a further data set is Proteus vulgaris OX-19. As to the kind of experiment: MIC, serial dilution method in Müller-Hinton agar. The class given is cell-based. The following applies: OX19, 37°C, 18 hours. On the procedure: as §1

The values below come from EP0321364A2, “Orally administrable cephalosporin derivatives, and the production and uses thereof” (ZAIDAN HOJIN BISEIBUTSU KAGAKU KENKYU KAI, priority 1987, dated 1989).

Values after ≈ are worked out from the molar mass of the structure shown.

As to `C/C=C\C1=C(C(=O)O)N2C(=O)C(NC(=O)[C@H](N)c3ccc(COC)c(OC)c3)[C@H]2SC1` (stereo partly drawn) [Example 6 Compound, 7-{(R)-2-amino-2-(3-methoxy-4-methoxymethylphenyl)acetamido}-3-{(Z)-1-propenyl}-3-cephem-4-carboxylic acid], in data set [1], the dose excreted amounted to 32.9%. Further, the minimum inhibitory concentration (MIC) (commonly the lowest concentration that inhibits growth of the organism) in data set [2] is more than 100 µg/mL; in [3] it was more than 100 µg/mL; in [4], 1.56 µg/mL (≈ 3.49 µM); with Proteus morganii IFO3848, 1.56 µg/mL (≈ 3.49 µM); in data set [5], 0.025 µg/mL (≈ 0.0559 µM); in data set [6] it was 6.25 µg/mL (≈ 14 µM). Also, the minimal inhibitory concentration (MIC) in data set [7] was 6.25 µg/mL (≈ 14 µM); in [8], 0.78 µg/mL (≈ 1.74 µM); in data set [9], 1.56 µg/mL (≈ 3.49 µM); in data set [10], 0.1 µg/mL (≈ 0.223 µM); in data set [11], 25 µg/mL (≈ 55.9 µM); in data set [12] it was 12.5 µg/mL (≈ 27.9 µM). The MIC is 1.56 µg/mL (≈ 3.49 µM) in [13]; 3.13 µg/mL (≈ 6.99 µM) in [14]; more than 100 µg/mL in data set [15]; 12.5 µg/mL (≈ 27.9 µM) in the data set on Proteus rettgeri IFO3850; 12.5 µg/mL (≈ 27.9 µM) in [16]; 0.05 µg/mL (≈ 0.112 µM) in data set [17]. The MIC in the data set on Salmonella typhi 901 is 12.5 µg/mL (≈ 27.9 µM); in data set [18], 100 µg/mL (≈ 223 µM); in data set [19] it was 25 µg/mL (≈ 55.9 µM); in data set [20], more than 100 µg/mL; against Proteus vulgaris OX-19, 100 µg/mL (≈ 223 µM).
